# Laboratory results: patent US20200113854A1, “Composition for Improving Brain Function” (MORINAGA MILK INDUSTRY CO., LTD., priority 2017, published 2020)
# System: Alzheimer's disease model mice
# Description: With reference to NPL 6, Alzheimer's disease model mice were prepared according to the following procedure and the improvement effect of acetic acid was evaluated.
# Taking the day when the administration was started as Day 1, amyloid was injected on Day 3. Specifically, an animal was anesthetized by intraperitoneally administering 40 mg/kg of pentobarbital sodium (Tokyo Chemical Industry Co., Ltd.) (amount of liquid administered: 10 mL/kg). After anesthesia, levobupivacaine hydrochloride (Popscaine (registered tradename) 0.25% inj., Maruishi Pharmaceutical Co. Ltd.) was subcutaneously administered (0.1 mL) to the scalp. After anesthesia, hair of a parietal region of the animal was cut and the head was fixed on a brain stereotaxic apparatus.
# The scalp was disinfected with ethanol for disinfection and then was cut to expose the cranial bone. […]
# An animal was placed in any one arm of the Y-shaped maze and was allowed to freely sleuth in the maze for 8 minutes. The order of the arms that the animal moved during the measurement period was recorded and the number of the movements to arms was counted and taken as a total entry number. […]
# A spontaneous alternation action rate was calculated with the following formula. […]
smiles,measurement,setting,value
"CC(=O)[O-].[Na+] [Sodium acetate, sodium acetate]",Spontaneous alternation action rate (%),"Amyloid β injection group, 150 mM sodium acetate with drinking water, Y-maze 8 minutes, p < 0.01 vs Amyloid β + physiological saline",67.5%
same,cognitive function of Alzheimer disease model mice,intake of 150 mM sodium acetate with drinking water,improved a cognitive function
